Measurements as given in patent publication US5883257A, “N-piperidinyl- and N-tetrahydropyridinyl-2-anthracenecarboxamides: dopamine receptor subtype specific ligands” (Neurogen Corporation, priority 1997, dated 1999).
pKi: −log10 of the molar value. Where a name gives a salt, the structure may show the parent alone.

Key:
dopamine D3 receptor = dopamine D3 receptor (Chlorocebus aethiops, UniProt P52703); assay: D3 receptor binding assay (displacement of 3H-YM 09151-2); design: species or system African Green monkey; conditions: 0.5 nM 3H-YM 09151-2; COS cells with recombinant D3 receptors; 0.05M Tris HCl, 100 mM NaCl; nonspecific: 1 mM spiperone
dopamine D3 receptor, sequence (P52703 whole entry): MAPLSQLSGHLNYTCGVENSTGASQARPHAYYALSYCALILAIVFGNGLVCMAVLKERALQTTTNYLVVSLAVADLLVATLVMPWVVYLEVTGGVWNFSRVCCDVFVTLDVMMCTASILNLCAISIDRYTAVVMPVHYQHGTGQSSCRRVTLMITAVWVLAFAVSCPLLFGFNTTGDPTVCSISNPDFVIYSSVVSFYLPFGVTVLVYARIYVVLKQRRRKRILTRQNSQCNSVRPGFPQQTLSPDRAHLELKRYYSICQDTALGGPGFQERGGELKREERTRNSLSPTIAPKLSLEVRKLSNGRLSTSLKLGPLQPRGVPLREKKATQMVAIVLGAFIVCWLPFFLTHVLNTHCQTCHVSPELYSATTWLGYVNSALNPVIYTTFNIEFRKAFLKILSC

dopamine D2 receptor = dopamine D2 receptor (Chlorocebus aethiops, UniProt P52702); assay: D2 receptor binding assay (displacement of 3H-YM 09151-2); design: species or system African Green monkey; conditions: 0.5 nM 3H-YM 09151-2; COS cells with recombinant D2 receptors; 0.05M Tris HCl, 100 mM NaCl; nonspecific: 1 mM spiperone
dopamine D2 receptor, sequence (P52702 whole entry): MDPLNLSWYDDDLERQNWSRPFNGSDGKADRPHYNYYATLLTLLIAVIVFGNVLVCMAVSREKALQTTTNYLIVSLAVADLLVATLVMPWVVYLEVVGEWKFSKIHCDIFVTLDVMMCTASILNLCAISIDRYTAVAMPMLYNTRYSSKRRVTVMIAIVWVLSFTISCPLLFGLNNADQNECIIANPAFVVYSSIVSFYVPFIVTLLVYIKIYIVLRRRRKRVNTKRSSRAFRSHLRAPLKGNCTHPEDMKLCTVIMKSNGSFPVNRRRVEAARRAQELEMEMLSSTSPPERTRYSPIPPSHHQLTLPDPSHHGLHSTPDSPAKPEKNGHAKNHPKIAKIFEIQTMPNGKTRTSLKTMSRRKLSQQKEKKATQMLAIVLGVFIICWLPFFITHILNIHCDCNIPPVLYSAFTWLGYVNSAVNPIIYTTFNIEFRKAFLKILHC

| pKi (dopamine D3 receptor) | pKi (dopamine D2 receptor) | SMILES |
| --- | --- | --- |
| 8.15 | 5.96 | O=C(NCCCCN1CCN(c2cccc(Cl)c2Cl)CC1)c1ccc2cc3ccccc3cc2c1 [Compound 1, N-{4-[4-(2,3-Dichlorophenyl)-1-piperazinyl]butyl}-2-anthracenecarboxamide] |
| 8.92 | 6.26 | O=C(NCCCCN1CCN(c2cccc3ccccc23)CC1)c1ccc2cc3ccccc3cc2c1 [Compound 2, N-{4-[4-(1-Naphthyl)-1-piperazinyl]butyl}-2-anthracenecarboxamide hydrochloride] |
